Laboratory results: ChEMBL document CHEMBL1201862, “PubChem BioAssay data set” (2004)
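Interpolation was linear, between the two tested concentrations surrounding the appropriate level; five concentrations were tested over 48 hours in 96-well plates. GI50: concentration for 50% inhibition of growth.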 Active and inactive are the calls of the source. Cut-off read from the data, not from the text of the source: active = GI50 up to about 1.1 µM and inactive = higher.

How the values were obtained:
Test in all cases: inhibition of tumour cell growth, NCI panel, 48 h
[1] = test system: 786-0
[2] = test system: A498
[3] = test system: A549
[4] = test system: ACHN
[5] = test system: BT-549
[6] = test system: CAKI-1
[7] = test system: CCRF-CEM
[8] = test system: COLO 205
[9] = test system: DU-145
[10] = test system: EKVX
[11] = test system: HCC 2998
[12] = test system: HCT-15
[13] = test system: HL-60
[14] = test system: HOP-62
[15] = test system: HOP-92
[16] = test system: HT-29
[17] = test system: Hs-578T
[18] = test system: IGROV-1
[19] = test system: K562
[20] = test system: KM12
[21] = test system: LOX IMVI
[22] = test system: M14
[23] = test system: MCF7
[24] = test system: MDA-MB-231
[25] = test system: MDA-MB-435
[26] = test system: MDA-N
[27] = test system: MOLT-4
[28] = test system: Malme-3M
[29] = test system: NCI-H23
[30] = test system: NCI-H460
[31] = test system: NCI-H522
[32] = test system: NCI/ADR-RES
[33] = test system: OVCAR-3
[34] = test system: OVCAR-4
[35] = test system: OVCAR-5
[36] = test system: OVCAR-8
[37] = test system: PC-3
[38] = test system: RPMI-8226
[39] = test system: SF-268
[40] = test system: SF-295
[41] = test system: SK-MEL-28
[42] = test system: SK-MEL-2
[43] = test system: SK-MEL-5
[44] = test system: SK-OV-3
[45] = test system: SN12C
[46] = test system: SNB-19
[47] = test system: SNB-75
[48] = test system: SR
[49] = test system: SW-620
[50] = test system: T47D
[51] = test system: TK-10
[52] = test system: U-251
[53] = test system: UACC-257
[54] = test system: UACC-62
[55] = test system: UO-31
[56] = test system: HCT-116
[57] = test system: NCI-H226
[58] = test system: RXF 393
[59] = test system: SF-539

`Cc1cc(NS(=O)(=O)c2ccc(Nc3c4ccccc4nc4c(C(=O)NC(CO)(CO)CO)cccc34)cc2)no1` was tested, and the GI50 [1] was 34.4 µM (inactive), the GI50 [2] was 47.1 µM (inactive) and the GI50 [3] was 48.1 µM (inactive). For the same molecule, the GI50 [4] was 32.7 µM (inactive), the GI50 [5] was 39.2 µM (inactive) and the GI50 [6] was 42.2 µM (inactive). The GI50 [7] was 19.4 µM (inactive), the GI50 [8] was 42.4 µM (inactive) and the GI50 [9] was 48.1 µM (inactive). For the same molecule, the GI50 [10] was 73.6 µM (inactive), the GI50 [11] was 16.9 µM (inactive) and the GI50 [12] was 61.7 µM. The GI50 [13] was 34.5 µM (inactive), the GI50 [14] was 25.1 µM (inactive) and the GI50 [15] was 32.7 µM (inactive). For the same molecule, the GI50 [16] was 38.7 µM (inactive), the GI50 [17] was 25.1 µM (inactive) and the GI50 [18] was 29 µM (inactive). For the same molecule, the GI50 [19] was 33.3 µM (inactive), the GI50 [20] was 25.2 µM (inactive) and the GI50 [21] was 18.2 µM (inactive). For the same molecule, the GI50 [22] was 52.5 µM (inactive), the GI50 [23] was 23.3 µM (inactive) and the GI50 [24] was 37.9 µM (inactive). For the same molecule, the GI50 [25] was 53.5 µM (inactive), the GI50 [26] was 37.3 µM (inactive) and the GI50 [27] was 8.75 µM (inactive). The GI50 [28] was 29.4 µM (inactive), the GI50 [29] was 43.6 µM (inactive) and the GI50 [30] was > 10 µM (inactive). For the same molecule, the GI50 [31] was 15.8 µM (inactive), the GI50 [32] was > 100 µM (inactive) and the GI50 [33] was 39.3 µM (inactive). The GI50 [34] was 48.8 µM (inactive), the GI50 [35] was 62.8 µM (inactive) and the GI50 [36] was 49.7 µM (inactive). For the same molecule, the GI50 [37] was 31.3 µM (inactive), the GI50 [38] was 19.7 µM (inactive) and the GI50 [39] was 21.3 µM (inactive). The GI50 [40] was 41 µM (inactive), the GI50 [41] was 52.8 µM (inactive) and the GI50 [42] was 19.4 µM (inactive). For the same molecule, the GI50 [43] was 32.4 µM (inactive), the GI50 [44] was 35.2 µM (inactive) and the GI50 [45] was 23.1 µM (inactive). For the same molecule, the GI50 [46] was 34.4 µM (inactive), the GI50 [47] was 8.41 µM (inactive) and the GI50 [48] was 26.3 µM (inactive). The GI50 [49] was 31 µM (inactive), the GI50 [50] was 26.5 µM (inactive) and the GI50 [51] was 29.2 µM (inactive). The GI50 [52] was 34.2 µM (inactive), the GI50 [53] was 72.1 µM (inactive) and the GI50 [54] was 22 µM (inactive). For the same molecule, the GI50 [55] was 48.6 µM (inactive).
For `CC12Nc3ccccc3N1C(=O)c1ccccc12` (configuration not stated), the GI50 [1] was > 100 µM (inactive), the GI50 [2] was > 100 µM (inactive) and the GI50 [3] was > 100 µM (inactive). The GI50 [4] was > 100 µM (inactive), the GI50 [5] was > 100 µM (inactive) and the GI50 [6] was > 100 µM (inactive). The GI50 [7] was > 100 µM (inactive), the GI50 [8] was > 100 µM (inactive) and the GI50 [9] was 88.1 µM (inactive). For the same molecule, the GI50 [10] was > 100 µM (inactive), the GI50 [11] was > 100 µM (inactive) and the GI50 [56] was > 100 µM (inactive). The GI50 [12] was over 100 µM, the GI50 [13] was > 100 µM (inactive) and the GI50 [14] was > 100 µM (inactive). The GI50 [15] was > 100 µM (inactive), the GI50 [16] was > 100 µM (inactive) and the GI50 [17] was > 100 µM (inactive). For the same molecule, the GI50 [18] was > 100 µM (inactive), the GI50 [19] was > 100 µM (inactive) and the GI50 [20] was > 100 µM (inactive). The GI50 [21] was > 100 µM (inactive), the GI50 [22] was > 100 µM (inactive) and the GI50 [23] was > 100 µM (inactive). The GI50 [24] was > 100 µM (inactive), the GI50 [25] was > 100 µM (inactive) and the GI50 [26] was > 100 µM (inactive). For the same molecule, the GI50 [27] was > 100 µM (inactive), the GI50 [57] was > 100 µM (inactive) and the GI50 [29] was > 100 µM (inactive). For the same molecule, the GI50 [30] was > 100 µM (inactive), the GI50 [31] was > 100 µM (inactive) and the GI50 [32] was > 100 µM (inactive). The GI50 [33] was > 100 µM (inactive), the GI50 [34] was > 100 µM (inactive) and the GI50 [35] was > 100 µM (inactive). For the same molecule, the GI50 [36] was > 100 µM (inactive), the GI50 [37] was > 100 µM (inactive) and the GI50 [38] was > 100 µM (inactive). The GI50 [58] was > 100 µM (inactive), the GI50 [39] was > 100 µM (inactive) and the GI50 [40] was > 100 µM (inactive). The GI50 [59] was > 100 µM (inactive), the GI50 [41] was > 100 µM (inactive) and the GI50 [42] was > 100 µM (inactive). For the same molecule, the GI50 [43] was > 100 µM (inactive), the GI50 [44] was > 100 µM (inactive) and the GI50 [45] was > 100 µM (inactive). For the same molecule, the GI50 [46] was > 100 µM (inactive), the GI50 [48] was > 100 µM (inactive) and the GI50 [49] was > 100 µM (inactive). For the same molecule, the GI50 [50] was > 100 µM (inactive), the GI50 [51] was > 100 µM (inactive) and the GI50 [52] was > 100 µM (inactive). The GI50 [53] was > 100 µM (inactive), the GI50 [54] was > 100 µM (inactive) and the GI50 [55] was > 100 µM (inactive).
